{"source": "ChEMBL document CHEMBL5532634", "about": "“Oxazolidinone: A promising scaffold for the development of antibacterial drugs” (Eur J Med Chem, 2023)", "format_in_all_cases": "functional", "key": {"[1]": {"tested_on": "Staphylococcus aureus", "test": "Antibacterial activity against Staphylococcus aureus ATCC 29213 assessed as reduction in bacterial growth incubated for 24 hrs by Mueller Hinton Agar based plate analysis"}, "[2]": {"tested_on": "Staphylococcus aureus", "test": "Antibacterial activity against Staphylococcus aureus ATCC 29213 assessed as bacterial growth inhibition incubated for 24 hrs by broth dilution method"}, "[3]": {"tested_on": "Staphylococcus aureus", "test": "Antibacterial activity against methicillin-resistant Staphylococcus aureus ATCC 3300 assessed as reduction in microbial growth measured after 24 hrs by broth microdilution analysis"}, "[4]": {"tested_on": "Staphylococcus aureus", "test": "Antibacterial activity against Linezolid-resistant Staphylococcus aureus assessed as reduction in bacterial growth"}, "[5]": {"tested_on": "Enterococcus faecium", "test": "Antibacterial activity against Linezolid-resistant Enterococcus faecium assessed as reduction in bacterial growth"}, "[6]": {"tested_on": "Haemophilus influenzae", "test": "Antibacterial activity against Haemophilus influenzae UC30063 assessed as reduction in bacterial growth by broth microdilution method"}, "[7]": {"tested_on": "Moraxella catarrhalis", "test": "Antibacterial activity against Moraxella catarrhalis UC30610 assessed as reduction in bacterial growth by broth microdilution method"}, "[8]": {"tested_on": "Staphylococcus epidermidis", "test": "Antibacterial activity methicillin-resistant Staphylococcus epidermidis UC12084 assessed as reduction in bacterial growth by broth microdilution method"}, "[9]": {"tested_on": "Staphylococcus aureus", "test": "In vivo Antibacterial activity against Methicillin-resistant Staphylococcus aureus in PO dosed mouse infected model assessed as reduction in bacterial load"}, "[10]": {"tested_on": "Enterococcus faecalis", "test": "Antibacterial activity against Enterococcus faecalis UC9217 assessed as reduction in bacterial growth by broth microdilution method"}, "[11]": {"tested_on": "Staphylococcus aureus", "test": "Antibacterial activity against Staphylococcus aureus ATCC 29213 assessed as reduction in microbial growth measured after 24 hrs by broth microdilution analysis"}, "[12]": {"tested_on": "Staphylococcus aureus", "test": "Antibacterial activity against Methicillin-resistant Staphylococcus aureus assessed as reduction in microbial growth by Muller Hinton broth based dilution assay"}, "[13]": {"tested_on": "Staphylococcus aureus", "test": "Antibacterial activity against Staphylococcus aureus ATCC 29213 assessed as reduction in bacterial growth incubated for 24 hrs by serial dilution method"}}}
{"smiles": "CC(=O)NC[C@H]1CN(c2ccc3c(c2)OC[C@@H]2CCCN32)C(=O)O1", "values": [{"measurement": "MIC", "setting": "[1]", "result": 4, "unit": "µg/mL"}]}
{"smiles": "CC/C(S)=N\\C[C@H]1CN(c2cc(F)c3c(c2)OC[C@@H]2CCCN32)C(=O)O1", "values": [{"measurement": "MIC", "setting": "[2]", "result": 0.5, "unit": "µg/mL"}]}
{"smiles": "CO/C(S)=N\\C[C@H]1CN(c2cc(F)c3c(c2)OC[C@@H]2CCCN32)C(=O)O1", "values": [{"measurement": "MIC", "setting": "[2]", "result": 0.5, "unit": "µg/mL"}]}
{"smiles": "N=C(S)NC[C@H]1CN(c2cc(F)c3c(c2)OC[C@@H]2CCCN32)C(=O)O1", "values": [{"measurement": "MIC", "setting": "[2]", "result": 0.5, "unit": "µg/mL"}]}
{"smiles": "CC(=O)NC[C@H]1CN(c2ccc(C3=CCOCC3)c(F)c2)C(=O)O1", "values": [{"measurement": "MIC", "setting": "[3]", "result": 0.13, "unit": "µg/mL"}]}
{"smiles": "O=C1O[C@@H](COc2ccccn2)CN1c1ccc(C2=CCOCC2)c(F)c1", "values": [{"measurement": "MIC", "setting": "[3]", "result": 1, "unit": "µg/mL"}]}
{"smiles": "CC(=O)NC[C@H]1CN(c2ccc(N3CCN(c4c(F)cc5c(=O)c(C(=O)O)cn6c5c4OC[C@@H]6C)CC3)c(F)c2)C(=O)O1", "values": [{"measurement": "MIC", "setting": "[4]", "result": 2, "unit": "µg/mL"}, {"measurement": "MIC", "setting": "[5]", "result": 0.5, "unit": "µg/mL"}]}
{"smiles": "CC(=O)NC[C@H]1CN(c2ccc(N3CCN(c4c(F)cc5c(=O)c(C(=O)O)cn6c5c4OCC6C)CC3)c(F)c2)C(=O)O1", "note": "(some centres undefined)", "values": [{"measurement": "MIC", "setting": "[4]", "result": 2, "unit": "µg/mL"}, {"measurement": "MIC", "setting": "[5]", "result": 0.5, "unit": "µg/mL"}]}
{"smiles": "CC(=O)NC[C@H]1CN(c2ccc(-n3ccc(C#N)c3)c(F)c2)C(=O)O1", "values": [{"measurement": "MIC", "setting": "[6]", "result": 2, "unit": "µg/mL"}, {"measurement": "MIC", "setting": "[7]", "result": 2, "unit": "µg/mL"}, {"measurement": "MIC", "setting": "[8]", "result": 0.125, "unit": "µg/mL"}, {"measurement": "ED50", "setting": "[9]", "result": 1.9, "unit": "mg/kg"}, {"measurement": "MIC", "setting": "[10]", "result": 0.125, "unit": "µg/mL"}]}
{"smiles": "CC(=O)NC[C@H]1CN(c2ccc(-n3cc(C#N)nn3)c(F)c2)C(=O)O1", "values": [{"measurement": "MIC", "setting": "[6]", "result": 2, "unit": "µg/mL"}, {"measurement": "MIC", "setting": "[7]", "result": 2, "unit": "µg/mL"}, {"measurement": "MIC", "setting": "[8]", "result": 0.125, "unit": "µg/mL"}, {"measurement": "ED50", "setting": "[9]", "result": 1.2, "unit": "mg/kg"}, {"measurement": "MIC", "setting": "[10]", "result": 0.125, "unit": "µg/mL"}]}
{"smiles": "CC(=O)NC[C@H]1CN(c2ccc(-n3ncc(C#N)n3)c(F)c2)C(=O)O1", "values": [{"measurement": "MIC", "setting": "[6]", "result": 2, "unit": "µg/mL"}, {"measurement": "MIC", "setting": "[7]", "result": 2, "unit": "µg/mL"}, {"measurement": "MIC", "setting": "[8]", "result": 0.125, "unit": "µg/mL"}, {"measurement": "ED50", "setting": "[9]", "result": 1.9, "unit": "mg/kg"}, {"measurement": "MIC", "setting": "[10]", "result": 0.125, "unit": "µg/mL"}]}
{"smiles": "C[C@@H](O)C(=O)N1CC=C(c2c(F)cc(N3C[C@H](COc4ccon4)OC3=O)cc2F)CC1", "values": [{"measurement": "MIC", "setting": "[11]", "result": 0.25, "unit": "µg/mL"}]}
{"smiles": "O=C1O[C@@H](Cn2ccnn2)CN1c1ccc(N2CCN(S(=O)(=O)c3cccc(C(F)(F)F)c3)CC2)c(F)c1", "values": [{"measurement": "MIC", "setting": "[12]", "result": 0.5, "unit": "µg/mL"}]}
{"smiles": "O=C1O[C@@H](Cn2ccnn2)CN1c1ccc(N2CCN(S(=O)(=O)c3ccc(Cl)cc3)CC2)c(F)c1", "values": [{"measurement": "MIC", "setting": "[12]", "result": 0.5, "unit": "µg/mL"}]}
{"smiles": "O=C1O[C@@H](Cn2ccnn2)CN1c1ccc(N2CCN(S(=O)(=O)c3cccc(F)c3)CC2)c(F)c1", "values": [{"measurement": "MIC", "setting": "[12]", "result": 0.5, "unit": "µg/mL"}]}
{"smiles": "Nc1cccc(S(=O)(=O)N2CCN(c3ccc(N4C[C@H](Cn5ccnn5)OC4=O)cc3F)CC2)c1", "values": [{"measurement": "MIC", "setting": "[12]", "result": 0.5, "unit": "µg/mL"}]}
{"smiles": "CC(=O)NC[C@H]1CN(c2ccc(N3CCN(c4cc5c(cc4F)c(=O)c(C(=O)O)cn5C4CC4)CC3)c(F)c2)C(=O)O1", "values": [{"measurement": "MIC", "setting": "[4]", "result": 2, "unit": "µg/mL"}, {"measurement": "MIC", "setting": "[5]", "result": 0.5, "unit": "µg/mL"}]}
{"smiles": "CC(=O)NC[C@H]1CN(c2ccc(-n3cc(C(=O)O)c(=O)c4cc(F)c(N5CCN(C)CC5)cc43)c(F)c2)C(=O)O1", "values": [{"measurement": "MIC", "setting": "[13]", "result": "> 64", "unit": "µg/mL"}]}
{"smiles": "O=C([C@H](O)CO)N1CC=C(c2c(F)cc(N3C[C@H](COc4ccon4)OC3=O)cc2F)CC1", "values": [{"measurement": "MIC", "setting": "[11]", "result": 0.25, "unit": "µg/mL"}]}
